Measured values as given in ChEMBL document CHEMBL1275550, “In vitro activity of doripenem, a carbapenem for the treatment of challenging infections caused by gram-negative bacteria, against recent clinical isolates from the United States” (2008).

Columns and labels:
Type in all cases: functional
[1] = system: Proteus mirabilis; assay: Antimicrobial activity against ESBL producing Proteus mirabilis assessed as resistant isolate by broth microdilution method
[2] = system: Pseudomonas aeruginosa; assay: Antimicrobial activity against imipenem susceptible Pseudomonas aeruginosa assessed as resistant isolate by broth microdilution method
[3] = system: Enterobacter cloacae; assay: Antimicrobial activity against Enterobacter cloacae with derepressed AmpC beta-lactamsae assessed as resistant isolate by broth microdilution method
[4] = system: Escherichia coli; assay: Antimicrobial activity against Non-ESBL Escherichia coli assessed as resistant isolate by broth microdilution method
[5] = system: Serratia marcescens; assay: Antimicrobial activity against Ceftazidime non-susceptible Serratia marcescens assessed as resistant isolate by broth microdilution method
[6] = system: Pseudomonas aeruginosa; assay: Antimicrobial activity against ceftazidime non-susceptible Pseudomonas aeruginosa assessed as susceptible isolate by broth microdilution method in presence of Tazobactam
[7] = system: Enterobacter cloacae; assay: Antimicrobial activity against Enterobacter cloacae with derepressed AmpC beta-lactamsae assessed as intermediate isolate by broth microdilution method in presence of Tazobactam
[8] = system: Proteus mirabilis; assay: Antimicrobial activity against Non-ESBL Proteus mirabilis by broth microdilution method in presence of Tazobactam
[9] = system: Serratia marcescens; assay: Antimicrobial activity against Ceftazidime non-susceptible Serratia marcescens by broth microdilution method in presence of tazobactam
[10] = system: Pseudomonas aeruginosa; assay: Antimicrobial activity against Pseudomonas aeruginosa isolated from non-ICU patient assessed as intermediate isolate by broth microdilution method in presence of Tazobactam
[11] = system: Acinetobacter; assay: Antimicrobial activity against imipenem non-susceptible Acinetobacter assessed as resistant isolate by broth microdilution method in presence of Tazobactam
[12] = system: Pseudomonas aeruginosa; assay: Antimicrobial activity against imipenem non-susceptible Pseudomonas aeruginosa by broth microdilution method in presence of Tazobactam
[13] = system: Citrobacter; assay: Antimicrobial activity against Citrobacter with derepressed AmpC beta-lactamsae assessed as resistant isolate by broth microdilution method in presence of Tazobactam
[14] = system: Pseudomonas aeruginosa; assay: Antimicrobial activity against imipenem non-susceptible Pseudomonas aeruginosa assessed as susceptible isolate by broth microdilution method in presence of Tazobactam
[15] = system: Pseudomonas aeruginosa; assay: Antimicrobial activity against Pseudomonas aeruginosa isolated from ICU patient assessed as intermediate isolate by broth microdilution method
[16] = system: Enterobacter cloacae; assay: Antimicrobial activity against Enterobacter cloacae with nonderepressed AmpC beta-lactamsae assessed as susceptible isolate by broth microdilution method in presence of Tazobactam
[17] = system: Enterobacteriaceae; assay: Antimicrobial activity against ceftazidime-susceptible Enterobacteriaceae assessed as resistant isolate by broth microdilution method in presence of Tazobactam
[18] = system: Enterobacter cloacae; assay: Antimicrobial activity against Enterobacter cloacae with nonderepressed AmpC beta-lactamsae by broth microdilution method in presence of Tazobactam
[19] = system: Proteus mirabilis; assay: Antimicrobial activity against Non-ESBL Proteus mirabilis assessed as susceptible isolate by broth microdilution method in presence of Tazobactam
[20] = system: Pseudomonas aeruginosa; assay: Antimicrobial activity against Pseudomonas aeruginosa isolated from ICU patient assessed as intermediate isolate by broth microdilution method in presence of Tazobactam
[21] = system: Escherichia coli; assay: Antimicrobial activity against ESBL producing Escherichia coli by broth microdilution method in presence of Tazobactam
[22] = system: Pseudomonas aeruginosa; assay: Antimicrobial activity against Pseudomonas aeruginosa isolated from ICU patient assessed as susceptible isolate by broth microdilution method in presence of Tazobactam
[23] = system: Klebsiella pneumoniae; assay: Antimicrobial activity against ESBL producing Klebsiella pneumoniae assessed as resistant isolate by broth microdilution method in presence of Tazobactam
[24] = system: Pseudomonas aeruginosa; assay: Antimicrobial activity against imipenem susceptible Pseudomonas aeruginosa assessed as susceptible isolate by broth microdilution method in presence of Tazobactam
[25] = system: Proteus mirabilis; assay: Antimicrobial activity against ESBL producing Proteus mirabilis assessed as susceptible isolate by broth microdilution method in presence of Tazobactam
[26] = system: Proteus mirabilis; assay: Antimicrobial activity against ESBL producing Proteus mirabilis by broth microdilution method in presence of Tazobactam
[27] = system: Citrobacter; assay: Antimicrobial activity against Citrobacter with nonderepressed AmpC beta-lactamsae by broth microdilution method in presence of Tazobactam
[28] = system: Klebsiella pneumoniae; assay: Antimicrobial activity against ESBL producing Klebsiella pneumoniae assessed as intermediate isolate by broth microdilution method in presence of Tazobactam
[29] = system: Klebsiella pneumoniae; assay: Antimicrobial activity against Non-ESBL Klebsiella pneumoniae assessed as susceptible isolate by broth microdilution method in presence of Tazobactam
[30] = system: Escherichia coli; assay: Antimicrobial activity against ESBL producing Escherichia coli assessed as intermediate isolate by broth microdilution method in presence of Tazobactam
[31] = system: Citrobacter; assay: Antimicrobial activity against Citrobacter with derepressed AmpC beta-lactamsae by broth microdilution method in presence of Tazobactam
[32] = system: Serratia marcescens; assay: Antimicrobial activity against Ceftazidime susceptible Serratia marcescens assessed as resistant isolate by broth microdilution method in presence of tazobactam
[33] = system: Acinetobacter; assay: Antimicrobial activity against imipenem non-susceptible Acinetobacter by broth microdilution method in presence of Tazobactam
[34] = system: Enterobacter cloacae; assay: Antimicrobial activity against Enterobacter cloacae with derepressed AmpC beta-lactamsae by broth microdilution method in presence of Tazobactam
[35] = system: Proteus mirabilis; assay: Antimicrobial activity against ESBL producing Proteus mirabilis assessed as intermediate isolate by broth microdilution method in presence of Tazobactam
[36] = system: Enterobacteriaceae; assay: Antimicrobial activity against Ceftazidime non-susceptible Enterobacteriaceae assessed as intermediate isolate by broth microdilution method in presence of tazobactam
[37] = system: Acinetobacter; assay: Antimicrobial activity against imipenem susceptible Acinetobacter assessed as resistant isolate by broth microdilution method in presence of Tazobactam
[38] = system: Pseudomonas aeruginosa; assay: Antimicrobial activity against imipenem susceptible Pseudomonas aeruginosa by broth microdilution method in presence of Tazobactam
[39] = system: Pseudomonas aeruginosa; assay: Antimicrobial activity against ceftazidime susceptible Pseudomonas aeruginosa assessed as resistant isolate by broth microdilution method in presence of Tazobactam
[40] = system: Pseudomonas aeruginosa; assay: Antimicrobial activity against imipenem non-susceptible Pseudomonas aeruginosa assessed as intermediate isolate by broth microdilution method in presence of Tazobactam
[41] = system: Citrobacter; assay: Antimicrobial activity against Citrobacter with derepressed AmpC beta-lactamsae assessed as susceptible isolate by broth microdilution method in presence of Tazobactam
[42] = system: Citrobacter; assay: Antimicrobial activity against Citrobacter with nonderepressed AmpC beta-lactamsae assessed as intermediate isolate by broth microdilution method in presence of Tazobactam
[43] = system: Enterobacter cloacae; assay: Antimicrobial activity against Enterobacter cloacae with derepressed AmpC beta-lactamsae assessed as resistant isolate by broth microdilution method in presence of Tazobactam
[44] = system: Klebsiella pneumoniae; assay: Antimicrobial activity against Non-ESBL Klebsiella pneumoniae assessed as intermediate isolate by broth microdilution method in presence of Tazobactam
[45] = system: Enterobacteriaceae; assay: Antimicrobial activity against Ceftazidime non-susceptible Enterobacteriaceae assessed as resistant isolate by broth microdilution method in presence of tazobactam
[46] = system: Pseudomonas aeruginosa; assay: Antimicrobial activity against Ceftazidime non-susceptible Pseudomonas aeruginosa assessed as intermediate isolate by broth microdilution method in presence of tazobactam
[47] = system: Acinetobacter; assay: Antimicrobial activity against imipenem non-susceptible Acinetobacter assessed as susceptible isolate by broth microdilution method in presence of Tazobactam

Question: Which results are given for `CC(C)(O/N=C(\C(=O)N[C@@H]1C(=O)N2C(C(=O)[O-])=C(C[n+]3ccccc3)CS[C@H]12)c1csc(N)n1)C(=O)O` [CEFTAZIDIME]?
Answer: Activity [1]: 0%; Activity [2]: 6.9%; Activity [3]: 97.1%; Activity [4]: 0.9%; Activity [5]: 100%

Question: For `CCN1CCN(C(=O)N[C@@H](C(=O)N[C@@H]2C(=O)N3[C@@H]2SC(C)(C)[C@@H]3C(=O)O)c2ccccc2)C(=O)C1=O` [PIPERACILLIN], which Activity [6] is on record?
Answer: The Activity was 17.3%.

Question: What about the Activity [7] of the same compound?
Answer: Its Activity is 11.7%.

Question: What about the MIC50 [8] of the same compound?
Answer: The MIC50 was 0.5 µg/mL.

Question: And the MIC90 [8]?
Answer: The MIC90 was 2 µg/mL.

Question: What about the MIC50 [9] of the same compound?
Answer: The MIC50 was 64 µg/mL.

Question: And the MIC90 [9]?
Answer: Its MIC90 is > 128 µg/mL.

Question: What about the Activity [10] of the same compound?
Answer: Its Activity is 0%.

Question: What about the Activity [11] of the same compound?
Answer: Its Activity is 96.1%.

Question: And the MIC50 [12]?
Answer: The MIC50 was 16 µg/mL.

Question: What about the MIC90 [12] of the same compound?
Answer: Its MIC90 is > 128 µg/mL.

Question: And the Activity [13]?
Answer: Its Activity is 67.3%.

Question: And the Activity [14]?
Answer: The Activity was 72.9%.

Question: And the MIC50 [15]?
Answer: Its MIC50 is 16 µg/mL.

Question: And the MIC90 [15]?
Answer: Its MIC90 is > 128 µg/mL.

Question: And the Activity [16]?
Answer: The Activity was 93.3%.

Question: And the Activity [17]?
Answer: The Activity was 1.9%.

Question: What about the MIC50 [18] of the same compound?
Answer: Its MIC50 is 4 µg/mL.

Question: What about the MIC90 [18] of the same compound?
Answer: Its MIC90 is 16 µg/mL.

Question: And the Activity [19]?
Answer: The Activity was 99.4%.

Question: What about the Activity [20] of the same compound?
Answer: The Activity was 0%.

Question: What about the MIC50 [21] of the same compound?
Answer: The MIC50 was 16 µg/mL.

Question: And the MIC90 [21]?
Answer: Its MIC90 is > 128 µg/mL.

Question: What about the Activity [22] of the same compound?
Answer: Its Activity is 78.4%.

Question: What about the Activity [23] of the same compound?
Answer: The Activity was 77.3%.

Question: What about the Activity [24] of the same compound?
Answer: The Activity was 90.6%.

Question: And the Activity [25]?
Answer: Its Activity is 100%.

Question: And the MIC [26]?
Answer: The MIC was 0.5 µg/mL.

Question: And the MIC50 [27]?
Answer: Its MIC50 is 4 µg/mL.

Question: And the MIC90 [27]?
Answer: Its MIC90 is 16 µg/mL.

Question: And the Activity [28]?
Answer: The Activity was 11.4%.

Question: And the Activity [29]?
Answer: Its Activity is 95.9%.

Question: What about the Activity [30] of the same compound?
Answer: The Activity was 16.7%.

Question: What about the MIC50 [31] of the same compound?
Answer: Its MIC50 is 128 µg/mL.

Question: And the MIC90 [31]?
Answer: Its MIC90 is > 128 µg/mL.

Question: And the Activity [32]?
Answer: The Activity was 1.9%.

Question: What about the MIC50 [33] of the same compound?
Answer: The MIC50 was > 128 µg/mL.

Question: And the MIC90 [33]?
Answer: The MIC90 was > 128 µg/mL.

Question: And the MIC50 [34]?
Answer: The MIC50 was > 128 µg/mL.

Question: What about the MIC90 [34] of the same compound?
Answer: The MIC90 was > 128 µg/mL.

Question: And the Activity [35]?
Answer: The Activity was 0%.

Question: And the Activity [36]?
Answer: The Activity was 20.6%.

Question: And the Activity [37]?
Answer: The Activity was 29.8%.

Question: And the MIC50 [38]?
Answer: Its MIC50 is 16 µg/mL.

Question: What about the MIC90 [38] of the same compound?
Answer: The MIC90 was 64 µg/mL.

Question: And the Activity [39]?
Answer: Its Activity is 3.7%.

Question: What about the Activity [40] of the same compound?
Answer: The Activity was 0%.

Question: What about the Activity [41] of the same compound?
Answer: Its Activity is 3.6%.

Question: What about the Activity [42] of the same compound?
Answer: The Activity was 3.7%.

Question: What about the Activity [43] of the same compound?
Answer: Its Activity is 82.5%.

Question: What about the Activity [44] of the same compound?
Answer: Its Activity is 2.4%.

Question: And the Activity [45]?
Answer: Its Activity is 63.8%.

Question: What about the Activity [46] of the same compound?
Answer: The Activity was 0%.

Question: What about the Activity [47] of the same compound?
Answer: The Activity was 0%.
